Measurements from patent US12605347B2, “Solid dispersion of ursolic acid and potassium salt” (Indena S.P.A., priority 2019, dated 2026).
Structures can show the parent of a compound that is named as a salt. Where two headings read alike, the source gives them in different places.

Assays:
[1] = low solubility-low permeability; cited from earlier work
[2] = Dissolution test: solubility in simulated gastrointestinal fluids, ursolic acid in the supernatant by HPLC; details: FaSSGF pH = 1.6; stirred 2 hours at 25° C., supernatant filtered 0.2 μm
Description: (§1) Analysis of the solid dispersions and the measure of the solubility in simulated gastrointestinal fluids were performed by HPLC with the instrument and conditions reported below.
(§2) Stirring was stopped and any undissolved solid was let to decant. The supernatant was filtered through a hydrophilic 0.2 μm PTFA filter and analyzed for the content of ursolic acid.
(§3) The same procedure as Test 1 was followed, using 100 mg of ursolic acid instead of the dispersion of example 1.
(§4) The same procedure as Test 1 was followed, using 100 mg ursolic acid potassium salt instead of the dispersion of example 1.

physchem = details: 25 °C, thermodynamic from solid
Description: as §1, §2, §3, §4

Compound | Ursolic acid in solution (pH 1.6) | Ursolic acid in solution (pH 5) [mg/mL] | Ursolic acid in solution (pH 6.5) [mg/mL] | class according to the biopharmaceutical classification system (BCS) [1] | Ursolic acid in solution [2] | solubility thermodynamic at 2 h (physchem; FaSSIF (simulated gastrointestinal fluid), pH 6.5, fassif) [µg/mL] | solubility thermodynamic at 2 h (physchem; FeSSIF (simulated gastrointestinal fluid), pH 5, fessif) [µg/mL]
3β-hydroxy-urs-12-en-28-oic acid [ursolic acid] | <LOD* | 0.083 | 0.032 | class IV | – | – | –
C[C@H]1[C@H](C)CC[C@]2(C(=O)O)CC[C@]3(C)C(=CC[C@@H]4[C@@]5(C)CC[C@H](O)C(C)(C)[C@@H]5CC[C@]43C)[C@H]12 [ursolic acid potassium salt] | – | – | – | – | <LOD* | 154 | 318
